From ChEMBL document CHEMBL3046025, “Fungitoxic Properties of N-Phenylformamidoximes in Control of Benzimidazole-Resistant Isolates of Fungi” (1992)
Calls of active or inactive are those of the source. The rule behind the calls is not given here.

Tests used:
Botrytis cinerea [1] = assay: Antifungal activity against Benzimidalzole-resistant Botryotinia fuckeliana isolate Bc-44 infected kidney bean leaves at 12.5 ppm treated as foliar application followed by incubation for 7 days in green house condition; format: functional
Cercospora beticola [2] = assay: Antifungal activity against Benzimidalzole-resistant Cercospora beticola isolate Cb-19 infected in sugar beet seedlings at 3.1 ppm treated as foliar application 7 days prior to inoculation; format: functional
Cercospora beticola [3] = assay: Antifungal activity against Benzimidalzole-resistant Cercospora beticola isolate Cb-19 infected in sugar beet seedlings at 50 ppm 24 hr-post inoculation; format: functional
Botrytis cinerea [4] = assay: Antifungal activity against Benzimidalzole-resistant Botryotinia fuckeliana isolate Bc-44 infected kidney bean leaves at 3.1 ppm treated as foliar application followed by incubation for 7 days in green house condition; format: functional
Botrytis cinerea [5] = assay: Ratio of EC50 for Benzimidalzole-resistant Botryotinia fuckeliana isolate Bc-40 to EC50 for Benzimidalzole-resistant Botryotinia fuckeliana isolate Bc-31; format: functional
Botrytis cinerea [6] = assay: Ratio of EC50 for Benzimidalzole-resistant Botryotinia fuckeliana isolate Bc-20 to EC50 for Benzimidalzole-resistant Botryotinia fuckeliana isolate Bc-44; format: functional
Botrytis cinerea [7] = assay: Ratio of EC50 for Benzimidalzole-sensitive Botryotinia fuckeliana isolate Bc-9 to EC50 for Benzimidalzole-resistant Botryotinia fuckeliana isolate Bc-31; format: functional
Botrytis cinerea [8] = assay: Ratio of EC50 for Benzimidalzole-sensitive Botryotinia fuckeliana isolate Bc-3 to EC50 for Benzimidalzole-resistant Botryotinia fuckeliana isolate Bc-31; format: functional
Botrytis cinerea [9] = assay: Antifungal activity against Benzimidalzole-resistant Botryotinia fuckeliana isolate Bc-44 infected compound-treated kidney bean leaves at 12.5 ppm after 4 days; format: functional
Cercospora beticola [10] = assay: Antifungal activity against Benzimidalzole-resistant Cercospora beticola isolate Cb-19 infected in sugar beet seedlings at 200 ppm applied as soil drench 3 days prior to inoculation; format: functional
Botrytis cinerea [11] = assay: Antifungal activity against Benzimidalzole-resistant Botryotinia fuckeliana isolate Bc-31 at 0.001 to 1000 ppm after 3 days by agar dilution method; format: functional, organism-based
Botrytis cinerea [12] = assay: Antifungal activity against Benzimidalzole-resistant Botryotinia fuckeliana isolate Bc-20 at 0.001 to 1000 ppm after 3 days by agar dilution method; format: functional, organism-based
Botrytis cinerea [13] = assay: Antifungal activity against Benzimidalzole-resistant Botryotinia fuckeliana isolate Bc-40 at 0.001 to 1000 ppm after 3 days by agar dilution method; format: functional, organism-based
Cercospora beticola [14] = assay: Ratio of EC50 for […] to EC50 for Benzimidalzole-resistant Cercospora beticola isolate 49-4; format: functional
Cercospora beticola [15] = assay: Ratio of EC50 for […] to EC50 for Benzimidalzole-resistant Cercospora beticola isole 28-8; format: functional
Cercospora beticola [16] = assay: Ratio of EC50 for Benzimidalzole-resistant Cercospora beticola isolate 20-2 to EC50 for Benzimidalzole-resistant Cercospora beticola isolate 1-3; format: functional
Cercospora beticola [17] = assay: Ratio of EC50 for Benzimidalzole-resistant Cercospora beticola isolate 18-11 to EC50 for Benzimidalzole-resistant Cercospora beticola isolate 18-2; format: functional
Cercospora beticola [18] = assay: Ratio of EC50 for Benzimidalzole-resistant Cercospora beticola isolate 18-11 to EC50 for Benzimidalzole-resistant Cercospora beticola isole 28-8; format: functional
Cercospora beticola [19] = assay: Ratio of EC50 for Benzimidalzole-resistant Cercospora beticola isolate 6-13 to EC50 for Benzimidalzole-resistant Cercospora beticola isolate 1-3; format: functional
Cercospora beticola [20] = assay: Ratio of EC50 for Benzimidalzole-resistant Cercospora beticola isolate 6-13 to EC50 for Benzimidalzole-resistant Cercospora beticola isole 28-8; format: functional
Cercospora beticola [21] = assay: Antifungal activity against Benzimidalzole-resistant Cercospora beticola isolate 20-2 at 0.001 to 1000 ppm after 14 days by agar dilution method; format: functional, organism-based
Cercospora beticola [22] = assay: Antifungal activity against Benzimidalzole-resistant Cercospora beticola isolate 6-13 at 0.001 to 1000 ppm after 14 days by agar dilution method; format: functional, organism-based
Cercospora beticola [23] = assay: Antifungal activity against Benzimidalzole-resistant Cercospora beticola isolate Cb-19 at 0.001 to 1000 ppm after 14 days by agar dilution method; format: functional, organism-based
Cercospora beticola [24] = assay: Antifungal activity against Benzimidalzole-resistant Cercospora beticola isolate 49-4 at 0.001 to 1000 ppm after 14 days by agar dilution method; format: functional, organism-based
Cercospora beticola [25] = assay: Antifungal activity against Benzimidalzole-resistant Cercospora beticola isolate 18-2 at 0.001 to 1000 ppm after 14 days by agar dilution method; format: functional, organism-based
Cercospora beticola [26] = assay: Ratio of EC50 for Benzimidalzole-sensitive Cercospora beticola isolate 24-3 to EC50 for Benzimidalzole-resistant Cercospora beticola isolate 49-4; format: functional
Cercospora beticola [27] = assay: Ratio of EC50 for Benzimidalzole-sensitive Cercospora beticola isolate 24-3 to EC50 for Benzimidalzole-resistant Cercospora beticola isolate 1-3; format: functional
Cercospora beticola [28] = assay: Ratio of EC50 for Benzimidalzole-sensitive Cercospora beticola isolate 24-3 to EC50 for Benzimidalzole-resistant Cercospora beticola isole 28-8; format: functional
Cercospora beticola [29] = assay: Ratio of EC50 for Benzimidalzole-sensitive Cercospora beticola isolate 22-5 to EC50 for Benzimidalzole-resistant Cercospora beticola isolate 49-4; format: functional
Cercospora beticola [30] = assay: Ratio of EC50 for Benzimidalzole-sensitive Cercospora beticola isolate 22-5 to EC50 for Benzimidalzole-resistant Cercospora beticola isole 28-8; format: functional
Cercospora beticola [31] = assay: Ratio of EC50 for Benzimidalzole-sensitive Cercospora beticola isolate 22-5 to EC50 for Benzimidalzole-resistant Cercospora beticola isole Cb-19; format: functional
Cercospora beticola [32] = assay: Ratio of EC50 for Benzimidalzole-sensitive Cercospora beticola isolate 18-1 to EC50 for Benzimidalzole-resistant Cercospora beticola isolate 49-4; format: functional
Cercospora beticola [33] = assay: Ratio of EC50 for Benzimidalzole-sensitive Cercospora beticola isolate 18-1 to EC50 for Benzimidalzole-resistant Cercospora beticola isolate 18-2; format: functional
Cercospora beticola [34] = assay: Ratio of EC50 for Benzimidalzole-sensitive Cercospora beticola isolate 18-1 to EC50 for Benzimidalzole-resistant Cercospora beticola isolate 1-3; format: functional
Botrytis cinerea [35] = assay: Antifungal activity against Benzimidalzole-resistant Botryotinia fuckeliana isolate Bc-44 infected kidney bean leaves at 3.1 ppm 24 hr post-infection measured after 3 days; format: functional
Botrytis cinerea [36] = assay: Antifungal activity against Benzimidalzole-resistant Botryotinia fuckeliana isolate Bc-44 infected kidney bean leaves at 12.5 ppm 24 hr post-infection measured after 3 days; format: functional
Botrytis cinerea [37] = assay: Antifungal activity against Benzimidalzole-resistant Botryotinia fuckeliana isolate Bc-44 infected kidney bean leaves at 200 ppm 24 hr post-infection measured after 3 days; format: functional
Cercospora beticola [38] = assay: Antifungal activity against Benzimidalzole-resistant Cercospora beticola isolate 18-2 infected in compound-treated sugar beet seedlings at 3.1 ppm after 12 days; format: functional
Cercospora beticola [39] = assay: Antifungal activity against Benzimidalzole-resistant Cercospora beticola isolate 18-2 infected in compound-treated sugar beet seedlings at 50 ppm after 12 days; format: functional
Cercospora beticola [40] = assay: Antifungal activity against Benzimidalzole-resistant Cercospora beticola isolate 18-2 infected in compound-treated sugar beet seedlings at 200 ppm after 12 days; format: functional
Cercospora beticola [41] = assay: Antifungal activity against Benzimidalzole-resistant Cercospora beticola isolate Cb-19 infected in compound-treated sugar beet seedlings at 3.1 ppm after 12 days; format: functional
Cercospora beticola [42] = assay: Antifungal activity against Benzimidalzole-resistant Cercospora beticola isolate Cb-19 infected in compound-treated sugar beet seedlings at 12.5 ppm after 12 days; format: functional
Botrytis cinerea [43] = assay: Antifungal activity against Benzimidalzole-resistant Botryotinia fuckeliana isolate Bc-44 infected compound-treated kidney bean leaves at 3.1 ppm after 4 days; format: functional

Structure (SMILES): C#CCOc1c(Cl)cc(N/C=N/OC)cc1Cl
- Activity (Botrytis cinerea [1]): 53%
- Activity (Cercospora beticola [2]): 40%
- Activity (Cercospora beticola [3]): 98%
- Activity (Botrytis cinerea [4]): 17%
- Ratio EC50 (Botrytis cinerea [5]): > 1000
- Ratio EC50 (Botrytis cinerea [6]): > 1000
- Ratio EC50 (Botrytis cinerea [7]): > 1000
- Ratio EC50 (Botrytis cinerea [8]): > 1000
- Activity (Botrytis cinerea [9]): 100%
- Activity (Cercospora beticola [10]): 72%
- Activity (Botrytis cinerea [11]): Active
- Activity (Botrytis cinerea [12]): inactive
- Activity (Botrytis cinerea [13]): inactive
- Ratio EC50 (Cercospora beticola [14]): > 1000
- Ratio EC50 (Cercospora beticola [15]): > 1000
- Ratio EC50 (Cercospora beticola [16]): > 1000
- Ratio EC50 (Cercospora beticola [17]): > 1000
- Ratio EC50 (Cercospora beticola [18]): > 1000
- Ratio EC50 (Cercospora beticola [19]): > 1000
- Ratio EC50 (Cercospora beticola [20]): > 1000
- Activity (Cercospora beticola [21]): inactive
- Activity (Cercospora beticola [22]): inactive
- Activity (Cercospora beticola [23]): Active
- Activity (Cercospora beticola [24]): Active
- Activity (Cercospora beticola [25]): Active
- Ratio EC50 (Cercospora beticola [26]): > 1000
- Ratio EC50 (Cercospora beticola [27]): > 1000
- Ratio EC50 (Cercospora beticola [28]): > 1000
- Ratio EC50 (Cercospora beticola [29]): > 1000
- Ratio EC50 (Cercospora beticola [30]): > 1000
- Ratio EC50 (Cercospora beticola [31]): > 1000
- Ratio EC50 (Cercospora beticola [32]): > 1000
- Ratio EC50 (Cercospora beticola [33]): > 1000
- Ratio EC50 (Cercospora beticola [34]): > 1000
- Activity (Botrytis cinerea [35]): 73%
- Activity (Botrytis cinerea [36]): 93%
- Activity (Botrytis cinerea [37]): 100%
- Activity (Cercospora beticola [38]): 91%
- Activity (Cercospora beticola [39]): 100%
- Activity (Cercospora beticola [40]): 100%
- Activity (Cercospora beticola [41]): 91%
- Activity (Cercospora beticola [42]): 100%
- Activity (Botrytis cinerea [43]): 95%
